According to patent US8192962B2, “Processes for detecting toxic substances” (Daikin Industries, Ltd., priority 2001, dated 2012):

Tested on: Energy system protein genes
Assay: DNA chip mRNA expression in yeast, energy system protein genes (Table 4)
Format: cell-based, Saccharomyces cerevisiae S288C
Method in brief: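 Measured as treated-to-untreated fluorescence ratio on a full-genome yeast DNA chip. Cells (S288C, YPD, 25° C.) were exposed in log phase for two hours to one chemical, dosed to curb growth without killing.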

Substance: Na2As [(1)]
- The level of expressed mRNA in the presence of chemical substance/The level of expressed mRNA in the absence of chemical substance (yeast gene YJR048W): 1.3
- The level of expressed mRNA in the presence of chemical substance/The level of expressed mRNA in the absence of chemical substance (yeast gene YJR121W, cells incubated two hours with the chemical substance): 1.2
- The level of expressed mRNA in the presence of chemical substance/The level of expressed mRNA in the absence of chemical substance (yeast gene YJR155W): 7.6
- The level of expressed mRNA in the presence of chemical substance/The level of expressed mRNA in the absence of chemical substance (yeast gene YKL016C, cells incubated two hours with the chemical substance): 1.5
- The level of expressed mRNA in the presence of chemical substance/The level of expressed mRNA in the absence of chemical substance (yeast gene YKL060C, cells incubated two hours with the chemical substance): 1.7
- The level of expressed mRNA in the presence of chemical substance/The level of expressed mRNA in the absence of chemical substance (yeast gene YKL141W, cells incubated two hours with the chemical substance): 1.6
- The level of expressed mRNA in the presence of chemical substance/The level of expressed mRNA in the absence of chemical substance (yeast gene YKL148C, cells incubated two hours with the chemical substance): 0.9
- The level of expressed mRNA in the presence of chemical substance/The level of expressed mRNA in the absence of chemical substance (yeast gene YKR009C, cells incubated two hours with the chemical substance): 1.0
- The level of expressed mRNA in the presence of chemical substance/The level of expressed mRNA in the absence of chemical substance (yeast gene YKR058W, cells incubated two hours with the chemical substance, 25° C., YPD medium): 1.3
- The level of expressed mRNA in the presence of chemical substance/The level of expressed mRNA in the absence of chemical substance (yeast gene YKR097W): 1.6
- The level of expressed mRNA in the presence of chemical substance/The level of expressed mRNA in the absence of chemical substance (yeast gene YLL041C, cells incubated two hours with the chemical substance): 1.5
- The level of expressed mRNA in the presence of chemical substance/The level of expressed mRNA in the absence of chemical substance (yeast gene YLR038C, cells incubated two hours with the chemical substance): 2.6
- The level of expressed mRNA in the presence of chemical substance/The level of expressed mRNA in the absence of chemical substance (yeast gene YLR044C, cells incubated two hours with the chemical substance): 0.8
- The level of expressed mRNA in the presence of chemical substance/The level of expressed mRNA in the absence of chemical substance (yeast gene YLR134W, cells incubated two hours with the chemical substance): 0.9
- The level of expressed mRNA in the presence of chemical substance/The level of expressed mRNA in the absence of chemical substance (yeast gene YLR258W, cells incubated two hours with the chemical substance): 1.7
- The level of expressed mRNA in the presence of chemical substance/The level of expressed mRNA in the absence of chemical substance (yeast gene YLR284C, cells incubated two hours with the chemical substance): 0.9
- The level of expressed mRNA in the presence of chemical substance/The level of expressed mRNA in the absence of chemical substance (yeast gene YLR295C, cells incubated two hours with the chemical substance, 25° C., YPD medium): 1.5
- The level of expressed mRNA in the presence of chemical substance/The level of expressed mRNA in the absence of chemical substance (yeast gene YLR304C, cells incubated two hours with the chemical substance): 0.7
- The level of expressed mRNA in the presence of chemical substance/The level of expressed mRNA in the absence of chemical substance (yeast gene YLR345W): 1.4
- The level of expressed mRNA in the presence of chemical substance/The level of expressed mRNA in the absence of chemical substance (yeast gene YLR354C, cells incubated two hours with the chemical substance): 1.2
- The level of expressed mRNA in the presence of chemical substance/The level of expressed mRNA in the absence of chemical substance (yeast gene YLR377C, cells incubated two hours with the chemical substance): 1.1
- The level of expressed mRNA in the presence of chemical substance/The level of expressed mRNA in the absence of chemical substance (yeast gene YLR395C, cells incubated two hours with the chemical substance): 1.8
- The level of expressed mRNA in the presence of chemical substance/The level of expressed mRNA in the absence of chemical substance (yeast gene YML087C): 1.8
- The level of expressed mRNA in the presence of chemical substance/The level of expressed mRNA in the absence of chemical substance (yeast gene YML120C, cells incubated two hours with the chemical substance): 1.1
- The level of expressed mRNA in the presence of chemical substance/The level of expressed mRNA in the absence of chemical substance (yeast gene YML129C, cells incubated two hours with the chemical substance): 1.1
- The level of expressed mRNA in the presence of chemical substance/The level of expressed mRNA in the absence of chemical substance (yeast gene YMR073C, cells incubated two hours with the chemical substance): 1.1
- The level of expressed mRNA in the presence of chemical substance/The level of expressed mRNA in the absence of chemical substance (yeast gene YMR118C): 1.3
- The level of expressed mRNA in the presence of chemical substance/The level of expressed mRNA in the absence of chemical substance (yeast gene YMR205C, cells incubated two hours with the chemical substance): 0.5
- The level of expressed mRNA in the presence of chemical substance/The level of expressed mRNA in the absence of chemical substance (yeast gene YMR261C, cells incubated two hours with the chemical substance): 0.8
- The level of expressed mRNA in the presence of chemical substance/The level of expressed mRNA in the absence of chemical substance (yeast gene YMR267W, cells incubated two hours with the chemical substance, 25° C., YPD medium): 0.8
- The level of expressed mRNA in the presence of chemical substance/The level of expressed mRNA in the absence of chemical substance (yeast gene YMR323W, cells incubated two hours with the chemical substance): 0.8
- The level of expressed mRNA in the presence of chemical substance/The level of expressed mRNA in the absence of chemical substance (yeast gene YNL071W): 0.9
- The level of expressed mRNA in the presence of chemical substance/The level of expressed mRNA in the absence of chemical substance (yeast gene YNL202W, cells incubated two hours with the chemical substance): 0.7
- The level of expressed mRNA in the presence of chemical substance/The level of expressed mRNA in the absence of chemical substance (yeast gene YNL241C): 1.3
- The level of expressed mRNA in the presence of chemical substance/The level of expressed mRNA in the absence of chemical substance (yeast gene YNL331C): 8.6
- The level of expressed mRNA in the presence of chemical substance/The level of expressed mRNA in the absence of chemical substance (yeast gene YOL086C, cells incubated two hours with the chemical substance): 1.1
- The level of expressed mRNA in the presence of chemical substance/The level of expressed mRNA in the absence of chemical substance (yeast gene YOL165C): 10.1
- The level of expressed mRNA in the presence of chemical substance/The level of expressed mRNA in the absence of chemical substance (yeast gene YOR142W, cells incubated two hours with the chemical substance): 1.3
- The level of expressed mRNA in the presence of chemical substance/The level of expressed mRNA in the absence of chemical substance (yeast gene YOR178C, cells incubated two hours with the chemical substance): 1.4
- The level of expressed mRNA in the presence of chemical substance/The level of expressed mRNA in the absence of chemical substance (yeast gene YOR388C, cells incubated two hours with the chemical substance): 1.0
- The level of expressed mRNA in the presence of chemical substance/The level of expressed mRNA in the absence of chemical substance (yeast gene YPL031C, cells incubated two hours with the chemical substance): 0.9
- The level of expressed mRNA in the presence of chemical substance/The level of expressed mRNA in the absence of chemical substance (yeast gene YPL061W, cells incubated two hours with the chemical substance): 0.4
- The level of expressed mRNA in the presence of chemical substance/The level of expressed mRNA in the absence of chemical substance (yeast gene YPL088W): 3.3
- The level of expressed mRNA in the presence of chemical substance/The level of expressed mRNA in the absence of chemical substance (yeast gene YPL171C): 15.2
- The level of expressed mRNA in the presence of chemical substance/The level of expressed mRNA in the absence of chemical substance (yeast gene YPL240C): 0.7
- The level of expressed mRNA in the presence of chemical substance/The level of expressed mRNA in the absence of chemical substance (yeast gene YPL262W, cells incubated two hours with the chemical substance): 1.1
- The level of expressed mRNA in the presence of chemical substance/The level of expressed mRNA in the absence of chemical substance (yeast gene YPL275W, cells incubated two hours with the chemical substance): 0.6
- The level of expressed mRNA in the presence of chemical substance/The level of expressed mRNA in the absence of chemical substance (yeast gene YPL276W, cells incubated two hours with the chemical substance): 1.2
- The level of expressed mRNA in the presence of chemical substance/The level of expressed mRNA in the absence of chemical substance (yeast gene YPR048W, cells incubated two hours with the chemical substance): 1.3
- The level of expressed mRNA in the presence of chemical substance/The level of expressed mRNA in the absence of chemical substance (yeast gene YPR184W, cells incubated two hours with the chemical substance): 1.2
